This assay concerns the target T1, Solute carrier family 12 member 5 (Homo sapiens, UniProt Q9H2X9).
T1 sequence (Q9H2X9 whole entry): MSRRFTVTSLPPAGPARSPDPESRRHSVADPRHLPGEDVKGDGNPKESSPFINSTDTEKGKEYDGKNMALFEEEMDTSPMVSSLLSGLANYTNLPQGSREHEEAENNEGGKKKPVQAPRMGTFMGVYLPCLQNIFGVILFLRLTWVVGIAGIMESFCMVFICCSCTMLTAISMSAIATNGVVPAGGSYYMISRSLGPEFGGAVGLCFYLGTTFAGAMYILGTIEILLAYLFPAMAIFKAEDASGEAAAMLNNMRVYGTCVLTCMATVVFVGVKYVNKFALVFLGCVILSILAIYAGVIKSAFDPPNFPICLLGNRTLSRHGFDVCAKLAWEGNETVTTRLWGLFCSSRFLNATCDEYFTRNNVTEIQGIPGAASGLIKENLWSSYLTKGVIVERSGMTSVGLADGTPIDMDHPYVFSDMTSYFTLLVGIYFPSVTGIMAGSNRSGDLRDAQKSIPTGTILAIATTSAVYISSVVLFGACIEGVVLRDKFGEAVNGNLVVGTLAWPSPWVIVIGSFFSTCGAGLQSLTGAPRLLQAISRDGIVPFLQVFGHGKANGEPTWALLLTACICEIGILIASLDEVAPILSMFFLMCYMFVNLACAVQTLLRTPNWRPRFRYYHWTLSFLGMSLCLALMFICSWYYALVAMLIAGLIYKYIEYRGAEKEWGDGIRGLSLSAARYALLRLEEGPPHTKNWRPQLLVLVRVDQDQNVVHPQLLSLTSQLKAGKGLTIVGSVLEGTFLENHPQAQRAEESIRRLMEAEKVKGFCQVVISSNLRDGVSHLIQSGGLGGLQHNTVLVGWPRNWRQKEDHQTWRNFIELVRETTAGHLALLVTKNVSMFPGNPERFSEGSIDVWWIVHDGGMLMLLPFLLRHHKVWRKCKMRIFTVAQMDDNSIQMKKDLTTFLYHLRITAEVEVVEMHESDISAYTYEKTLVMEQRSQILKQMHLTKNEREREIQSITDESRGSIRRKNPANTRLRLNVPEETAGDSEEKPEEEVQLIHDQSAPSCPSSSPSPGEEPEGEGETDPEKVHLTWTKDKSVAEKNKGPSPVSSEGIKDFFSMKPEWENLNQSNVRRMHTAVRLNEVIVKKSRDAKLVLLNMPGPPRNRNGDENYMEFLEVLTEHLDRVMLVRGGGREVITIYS
The assay can be described thus: KCC2 modulator potency by thallium flux, dose response, cell-based, HEK293 KCC2, FluoZin-2 fluorescence (AID 1736).

[1] abbreviates: inactive by the depositor's call.

Usually EC50 stands for the concentration needed to bring the measured effect to its halfway point. Higher therefore signals lower potency in that assay.

With `Cc1ccc(-c2n[nH]c(=S)n2NC=CCc2ccccc2[N+](=O)[O-])cc1`, the half-maximal effective concentration (EC50) was determined as 1.8 µM.
On to `Cc1[nH]c2ccccc2c1Cc1n[nH]c(=S)n1C`, for which the response was half-maximal at 25.1 µM (EC50).
In turn, `COc1cc(C=NN(C)c2ccccc2)ccc1O` gave an EC50 of 10100 µM.
In the case of `Cc1[nH]c2ccccc2c1Cc1nnc(S)o1`, the midpoint of the response, the EC50, lay at 1.59 µM.
Turning to `O=c1[nH]c2c(s1)C(c1ccccc1)c1c(c(O)n(-c3ccccc3)c1O)S2` (stereo not drawn), the half-maximal effective concentration (EC50) came to 0.102 µM.
In turn, `O=C(CSc1ccccc1C(=O)NCc1ccccc1)NC12CC3CC(CC(C3)C1)C2` yielded an EC50 of 5.21 µM.
In turn, `CC(C)N1C(=O)S/C(=C/c2ccccc2OCc2ccc(C(=O)O)cc2)C1=O` showed an EC50 of 218 µM.
In turn, `CC1CCCCN1C(=O)CSc1nnc(-c2c[nH]c3ccccc23)o1` (stereo not drawn) returned an EC50 of 10.7 µM.
In the case of `CC(C(=O)N=c1sc2ccccc2n1C)N1C(=O)C2CC=CCC2C1=O` (stereo not drawn), under setting [1], the 50% effective concentration (EC50) amounted to 120 µM.
As to `NC1=NC[C@@H](Cc2ccc(O)cc2)N1CCc1cc(C(F)(F)F)cc(C(F)(F)F)c1`, the EC50 was 7.94 µM.
Consider `O=C1OC(c2ccc(O)cc2)(c2ccc(O)cc2)c2ccccc21`, for which the EC50 worked out at 3.29 µM.
Take `O=C(O)c1cc(-c2ccc(F)cc2F)ccc1O`: the EC50 stood at 10.6 µM.
In turn, `O=C(c1cc2c(s1)-c1ccccc1OC2)N1CCC2(CC1)OCCO2` [1,4-dioxa-8-azaspiro[4.5]decan-8-yl(4H-thieno[3,2-c][1]benzopyran-2-yl)methanone] yielded an EC50 of 30.2 µM.
On the same count and under the same terms, as for `O=C(CSc1nnc(C2CC2)n1Cc1ccccc1)c1cc2ccccc2o1` [1-(1-benzofuran-2-yl)-2-[(4-benzyl-5-cyclopropyl-1,2,4-triazol-3-yl)sulfanyl]ethanone], the figure is 5.3 µM.
The compound `COc1ccc(C(c2nnnn2Cc2cccs2)N2CCN(c3ccccc3F)CC2)cc1` (stereo not drawn) [1-(2-Fluoro-phenyl)-4-[(4-methoxy-phenyl)-(1-thiophen-2-ylmethyl-1H-tetrazol-5-yl)-methyl]-piperazine] came in with an EC50 under setting [1] of 13.2 µM.
As for `CC1Cc2ccccc2N1C(=O)CSc1nnc(CNc2ccccc2)o1` (stereo not drawn) [1-(2-Methyl-2,3-dihydro-indol-1-yl)-2-(5-phenylaminomethyl-[1,3,4]oxadiazol-2-ylsulfanyl)-ethanone], the EC50 stood at 18.5 µM.
Under setting [1], `COc1cc(C)c(C)cc1S(=O)(=O)N1CCN(Cc2ccccc2)CC1` [1-(2-methoxy-4,5-dimethyl-phenyl)sulfonyl-4-(phenylmethyl)piperazine] registered an EC50 of 33.3 µM.
Consider `CC1Cc2ccccc2N1C(=O)CSc1nnnn1Cc1ccccc1` (stereo not drawn) [1-(2-methyl-2,3-dihydroindol-1-yl)-2-[[1-(phenylmethyl)-1,2,3,4-tetrazol-5-yl]sulfanyl]ethanone], for which the EC50 amounted to 1.91 µM.
On the same count and under the same terms, as for `C=CCn1c(Cc2cccs2)nnc1SCC(=O)c1ccc2ccccc2c1` [1-(2-naphthalenyl)-2-[[4-prop-2-enyl-5-(thiophen-2-ylmethyl)-1,2,4-triazol-3-yl]thio]ethanone], the figure is 4.99 µM.
For `S=C(NCCc1ccccc1)NCc1cccs1` [1-(2-phenylethyl)-3-(thiophen-2-ylmethyl)thiourea], under setting [1], the EC50 was determined as 5.82 µM.
`O=C(CSc1nnc(-c2ccc(O)cc2)n1Cc1ccco1)N1CCc2ccccc2C1` [1-(3,4-Dihydro-1H-isoquinolin-2-yl)-2-[4-furan-2-ylmethyl-5-(4-hydroxy-phenyl)-4H-[1,2,4]triazol-3-ylsulfanyl]-ethanone] returned an EC50 of 15.3 µM.
Same read-out and setting: to `O=C(CSc1nnc(CNc2ccccc2)o1)N1CCCc2ccccc21` [1-(3,4-Dihydro-2H-quinolin-1-yl)-2-(5-phenylaminomethyl-[1,3,4]oxadiazol-2-ylsulfanyl)-ethanone] belongs 34.6 µM.
As for `Cc1oc(-c2ccccc2)nc1C[S+]([O-])CC(=O)N1CCc2ccccc2C1` (stereo not drawn) [1-(3,4-dihydro-1H-isoquinolin-2-yl)-2-[(5-methyl-2-phenyl-1,3-oxazol-4-yl)methylsulfinyl]ethanone], a half-maximal effect (EC50) was put at 4.86 µM.
Compound `Cc1cccc(-c2nc(C[S+]([O-])CC(=O)N3CCc4ccccc4C3)c(C)o2)c1` (stereo not drawn) [1-(3,4-dihydro-1H-isoquinolin-2-yl)-2-[[5-methyl-2-(3-methylphenyl)-1,3-oxazol-4-yl]methylsulfinyl]ethanone] yielded an EC50 of 5.03 µM.
`Cn1cc(C(=O)C(=O)N2CCCc3ccccc32)c2ccccc21` [1-(3,4-dihydro-2H-quinolin-1-yl)-2-(1-methyl-3-indolyl)ethane-1,2-dione] displayed a concentration for a half-maximal effect (EC50) of 3.72 µM.
Compound `O=C(CSc1ccc(-c2ccccc2)nn1)N1CCCc2ccccc21` [1-(3,4-dihydro-2H-quinolin-1-yl)-2-(6-phenylpyridazin-3-yl)sulfanyl-ethanone] showed a 50% effective concentration (EC50) of 10.5 µM.
The same measure, in the same setting: to `S=C(NN=Cc1cccc2ccccc12)Nc1cccc(Cl)c1` [1-(3-chlorophenyl)-3-(1-naphthalenylmethylideneamino)thiourea] belongs 12.7 µM; to `O=C(c1ccc(N2CCCCCC2)c([N+](=O)[O-])c1)N1CCc2ccccc21` [1-(4-azepan-1-yl-3-nitrobenzoyl)indoline], 0.556 µM; to `O=C(CSc1nnc(Cc2ccccc2)o1)c1ccc(F)cc1` [1-(4-fluorophenyl)-2-[[5-(phenylmethyl)-1,3,4-oxadiazol-2-yl]sulfanyl]ethanone], 3.85 µM.
Same read-out and setting: to `Cc1ccc(S(=O)(=O)N2CCC(=O)N(C(COCc3ccccc3)Cc3ccccc3)CC2)cc1` (stereo not drawn) [1-(4-methylphenyl)sulfonyl-4-(1-phenyl-3-phenylmethoxy-propan-2-yl)-1,4-diazepan-5-one] belongs 1.17 µM; to `S=C(NCc1cccnc1)Nc1ccc(Oc2ccccc2)cc1` [1-(4-phenoxyphenyl)-3-(3-pyridinylmethyl)thiourea], 5.3 µM; to `O=C(C[n+]1ccccc1)c1ccc(-c2ccccc2)cc1` [1-(4-phenylphenyl)-2-(1-pyridin-1-iumyl)ethanone;bromide], 43.6 µM.
Consider `Cc1cccc(Nc2nnc(SCC(=O)c3ccc(Br)s3)s2)c1C` [1-(5-bromanylthiophen-2-yl)-2-[[5-[(2,3-dimethylphenyl)amino]-1,3,4-thiadiazol-2-yl]sulfanyl]ethanone], for which the EC50 worked out at 1.49 µM.
`Cc1ccc(Nc2nnc(SCC(=O)c3ccc(Br)s3)s2)c(C)c1` [1-(5-bromanylthiophen-2-yl)-2-[[5-[(2,4-dimethylphenyl)amino]-1,3,4-thiadiazol-2-yl]sulfanyl]ethanone] showed an EC50 of 1.02 µM.
`Cc1noc(C)c1S(=O)(=O)N1CCC(C(=O)N2CCN(c3ccc(F)cc3)CC2)CC1` [1-({1-[(3,5-dimethylisoxazol-4-yl)sulfonyl]piperidin-4-yl}carbonyl)-4-(4-fluorophenyl)piperazine] returned an EC50 of 7.58 µM.
`O=C(NC(=S)Nc1ccc2c(c1)OCO2)c1ccc(Cl)cc1` [1-Benzo[1,3]dioxol-5-yl-3-(4-chloro-benzoyl)-thiourea] registered an EC50 under setting [1] of 0.0741 µM.
The compound `O=S(=O)(NCc1ccccc1)c1ccc(Cl)c(S(=O)(=O)NCc2ccccc2)c1` [1-N,3-N-dibenzyl-4-chlorobenzene-1,3-disulfonamide] had an EC50 of 2.11 µM.
With `Cc1nc2cc(C(F)(F)F)ccc2n1C1CCN(Cc2nnnn2Cc2ccc3c(c2)OCO3)CC1` [1-[1-(1-Benzo[1,3]dioxol-5-ylmethyl-1H-tetrazol-5-ylmethyl)-piperidin-4-yl]-2-methyl-5-trifluoromethyl-1H-benzoimidazole], it took 16.4 µM to reach a half-maximal effect (EC50).

(Values after BindingDB's records for doi:10.7270/Q2Q52N1X (Vanderbilt Screening Center for GPCRs, Ion Channels and …, 2009).)
